Source: ChEMBL document CHEMBL1201862, “PubChem BioAssay data set” (2004)
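Cultured in 96-well plates, cells were exposed to test compound for 48 hours across five concentrations. At the GI50, growth is halved.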 Activity calls are given as the source filed them. Cut-off read from the data, not from the text of the source: active = GI50 up to about 1.1 µM and inactive = higher.

How the values were obtained:
Assay in all cases: growth of human tumour cells (NCI), 48 h
OVCAR-5 = test system: OVCAR-5
MDA-MB-435 = test system: MDA-MB-435
OVCAR-8 = test system: OVCAR-8
BT-549 = test system: BT-549
Hs-578T = test system: Hs-578T
T47D = test system: T47D
HCT-116 = test system: HCT-116
NCI-H226 = test system: NCI-H226
RXF 393 = test system: RXF 393
SF-268 = test system: SF-268
UACC-62 = test system: UACC-62
SK-MEL-2 = test system: SK-MEL-2
SN12C = test system: SN12C
Malme-3M = test system: Malme-3M
MDA-N = test system: MDA-N
SW-620 = test system: SW-620
MOLT-4 = test system: MOLT-4
HCC 2998 = test system: HCC 2998
PC-3 = test system: PC-3
SNB-19 = test system: SNB-19
HOP-92 = test system: HOP-92
RPMI-8226 = test system: RPMI-8226
DU-145 = test system: DU-145
IGROV-1 = test system: IGROV-1
A498 = test system: A498
A549 = test system: A549
NCI-H460 = test system: NCI-H460
MCF7 = test system: MCF7
SF-539 = test system: SF-539
SK-MEL-5 = test system: SK-MEL-5
UO-31 = test system: UO-31
ACHN = test system: ACHN
UACC-257 = test system: UACC-257
EKVX = test system: EKVX
OVCAR-4 = test system: OVCAR-4
KM12 = test system: KM12
SNB-75 = test system: SNB-75
HCT-15 = test system: HCT-15
NCI-H23 = test system: NCI-H23
COLO 205 = test system: COLO 205
M14 = test system: M14
NCI/ADR-RES = test system: NCI/ADR-RES
CCRF-CEM = test system: CCRF-CEM
HL-60 = test system: HL-60
SK-MEL-28 = test system: SK-MEL-28
786-0 = test system: 786-0
U-251 = test system: U-251
NCI-H522 = test system: NCI-H522
SR = test system: SR
CAKI-1 = test system: CAKI-1
MDA-MB-231 = test system: MDA-MB-231
HOP-62 = test system: HOP-62
TK-10 = test system: TK-10
LOX IMVI = test system: LOX IMVI
K562 = test system: K562
OVCAR-3 = test system: OVCAR-3
SK-OV-3 = test system: SK-OV-3
SF-295 = test system: SF-295
HT-29 = test system: HT-29

Structure (SMILES): C#CCOC(=O)C(N)CSSCC(N)C(=O)O (stereo not drawn)
- GI50 (OVCAR-5): > 100 µM (inactive)
- GI50 (MDA-MB-435): > 100 µM (inactive)
- GI50 (OVCAR-8): > 100 µM (inactive)
- GI50 (BT-549): > 100 µM (inactive)
- GI50 (Hs-578T): > 100 µM (inactive)
- GI50 (T47D): > 100 µM (inactive)
- GI50 (HCT-116): > 100 µM (inactive)
- GI50 (NCI-H226): > 100 µM (inactive)
- GI50 (RXF 393): > 100 µM (inactive)
- GI50 (SF-268): > 100 µM (inactive)
- GI50 (UACC-62): > 100 µM (inactive)
- GI50 (SK-MEL-2): > 100 µM (inactive)
- GI50 (SN12C): > 100 µM (inactive)
- GI50 (Malme-3M): > 100 µM (inactive)
- GI50 (MDA-N): > 100 µM (inactive)
- GI50 (SW-620): > 100 µM (inactive)
- GI50 (MOLT-4): > 100 µM (inactive)
- GI50 (HCC 2998): > 100 µM (inactive)
- GI50 (PC-3): > 100 µM (inactive)
- GI50 (SNB-19): > 100 µM (inactive)
- GI50 (HOP-92): > 100 µM (inactive)
- GI50 (RPMI-8226): > 100 µM (inactive)
- GI50 (DU-145): > 100 µM (inactive)
- GI50 (IGROV-1): > 100 µM (inactive)
- GI50 (A498): > 100 µM (inactive)
- GI50 (A549): > 100 µM (inactive)
- GI50 (NCI-H460): > 100 µM (inactive)
- GI50 (MCF7): > 100 µM (inactive)
- GI50 (SF-539): > 100 µM (inactive)
- GI50 (SK-MEL-5): > 100 µM (inactive)
- GI50 (UO-31): > 100 µM (inactive)
- GI50 (ACHN): > 100 µM (inactive)
- GI50 (UACC-257): > 100 µM (inactive)
- GI50 (EKVX): > 100 µM (inactive)
- GI50 (OVCAR-4): > 100 µM (inactive)
- GI50 (KM12): > 100 µM (inactive)
- GI50 (SNB-75): > 100 µM (inactive)
- GI50 (HCT-15): > 100 µM
- GI50 (NCI-H23): > 100 µM (inactive)
- GI50 (COLO 205): > 100 µM (inactive)
- GI50 (M14): > 100 µM (inactive)
- GI50 (NCI/ADR-RES): > 100 µM (inactive)
- GI50 (CCRF-CEM): > 100 µM (inactive)
- GI50 (HL-60): > 100 µM (inactive)
- GI50 (SK-MEL-28): > 100 µM (inactive)
- GI50 (786-0): > 100 µM (inactive)
- GI50 (U-251): > 100 µM (inactive)
- GI50 (NCI-H522): > 100 µM (inactive)
- GI50 (SR): > 100 µM (inactive)
- GI50 (CAKI-1): > 100 µM (inactive)
- GI50 (MDA-MB-231): > 100 µM (inactive)
- GI50 (HOP-62): > 100 µM (inactive)
- GI50 (TK-10): > 100 µM (inactive)
- GI50 (LOX IMVI): 65.9 µM (inactive)

Structure (SMILES): CC(=O)OCC1OC(n2c(C#N)cc(=O)[nH]c2=O)CC1OC(C)=O (stereo not drawn)
- GI50 (OVCAR-5): > 100 µM (inactive)
- GI50 (MDA-MB-435): > 100 µM (inactive)
- GI50 (OVCAR-8): > 100 µM (inactive)
- GI50 (BT-549): > 100 µM (inactive)
- GI50 (Hs-578T): > 100 µM (inactive)
- GI50 (T47D): > 100 µM (inactive)
- GI50 (HCT-116): > 100 µM (inactive)
- GI50 (K562): > 100 µM (inactive)
- GI50 (NCI-H226): > 100 µM (inactive)
- GI50 (RXF 393): > 100 µM (inactive)
- GI50 (OVCAR-3): > 100 µM (inactive)
- GI50 (SF-268): > 100 µM (inactive)
- GI50 (UACC-62): > 100 µM (inactive)
- GI50 (SK-MEL-2): > 100 µM (inactive)
- GI50 (SN12C): > 100 µM (inactive)
- GI50 (Malme-3M): > 100 µM (inactive)
- GI50 (SK-OV-3): > 100 µM (inactive)
- GI50 (MDA-N): > 100 µM (inactive)
- GI50 (SW-620): > 100 µM (inactive)
- GI50 (MOLT-4): > 100 µM (inactive)
- GI50 (HCC 2998): > 10 µM (inactive)
- GI50 (PC-3): > 100 µM (inactive)
- GI50 (SNB-19): > 100 µM (inactive)
- GI50 (HOP-92): > 100 µM (inactive)
- GI50 (DU-145): > 100 µM (inactive)
- GI50 (IGROV-1): > 100 µM (inactive)
- GI50 (A498): > 100 µM (inactive)
- GI50 (SF-295): > 100 µM (inactive)
- GI50 (A549): > 100 µM (inactive)
- GI50 (NCI-H460): > 100 µM (inactive)
- GI50 (MCF7): > 100 µM (inactive)
- GI50 (SF-539): > 100 µM (inactive)
- GI50 (SK-MEL-5): > 100 µM (inactive)
- GI50 (UO-31): > 100 µM (inactive)
- GI50 (ACHN): > 100 µM (inactive)
- GI50 (UACC-257): > 100 µM (inactive)
- GI50 (EKVX): > 100 µM (inactive)
- GI50 (OVCAR-4): > 100 µM (inactive)
- GI50 (KM12): > 100 µM (inactive)
- GI50 (SNB-75): > 100 µM (inactive)
- GI50 (HCT-15): > 100 µM
- GI50 (NCI-H23): > 100 µM (inactive)
- GI50 (COLO 205): > 100 µM (inactive)
- GI50 (M14): > 100 µM (inactive)
- GI50 (NCI/ADR-RES): > 100 µM (inactive)
- GI50 (CCRF-CEM): > 100 µM (inactive)
- GI50 (HL-60): > 100 µM (inactive)
- GI50 (SK-MEL-28): > 100 µM (inactive)
- GI50 (786-0): > 100 µM (inactive)
- GI50 (U-251): > 100 µM (inactive)
- GI50 (HT-29): > 100 µM (inactive)
- GI50 (NCI-H522): > 100 µM (inactive)
- GI50 (SR): > 100 µM (inactive)
- GI50 (CAKI-1): > 100 µM (inactive)
- GI50 (MDA-MB-231): > 100 µM (inactive)
- GI50 (HOP-62): > 100 µM (inactive)
- GI50 (TK-10): > 100 µM (inactive)
- GI50 (LOX IMVI): > 100 µM (inactive)

Structure (SMILES): CCCCCCCCCCCCNC(=O)CCC(NC(=O)c1ccc(N(C)Cc2cnc3nc(N)nc(N)c3n2)cc1)C(=O)NCCCCCCCCCCCC (stereo not drawn)
- GI50 (OVCAR-5): > 100 µM (inactive)
- GI50 (MDA-MB-435): 52.8 µM (inactive)
- GI50 (OVCAR-8): 16.9 µM (inactive)
- GI50 (BT-549): 41.2 µM (inactive)
- GI50 (Hs-578T): 27.2 µM (inactive)
- GI50 (T47D): 24.4 µM (inactive)
- GI50 (HCT-116): 26.6 µM (inactive)
- GI50 (K562): 18.5 µM (inactive)
- GI50 (NCI-H226): > 100 µM (inactive)
- GI50 (RXF 393): 18.4 µM (inactive)
- GI50 (OVCAR-3): 31.5 µM (inactive)
- GI50 (SF-268): 78.3 µM (inactive)
- GI50 (UACC-62): 55.5 µM (inactive)
- GI50 (SK-MEL-2): 30 µM (inactive)
- GI50 (SN12C): 91.8 µM (inactive)
- GI50 (Malme-3M): 95.5 µM (inactive)
- GI50 (MDA-N): 41.7 µM (inactive)
- GI50 (SW-620): 29.6 µM (inactive)
- GI50 (MOLT-4): > 100 µM (inactive)
- GI50 (HCC 2998): 45.7 µM (inactive)
- GI50 (PC-3): > 100 µM (inactive)
- GI50 (SNB-19): 22.9 µM (inactive)
- GI50 (HOP-92): 9.44 µM (inactive)
- GI50 (RPMI-8226): > 100 µM (inactive)
- GI50 (DU-145): > 100 µM (inactive)
- GI50 (IGROV-1): 36.1 µM (inactive)
- GI50 (A498): 42.8 µM (inactive)
- GI50 (SF-295): 25.4 µM (inactive)
- GI50 (A549): > 100 µM (inactive)
- GI50 (MCF7): 30.6 µM (inactive)
- GI50 (SF-539): > 100 µM (inactive)
- GI50 (SK-MEL-5): > 100 µM (inactive)
- GI50 (UO-31): > 100 µM (inactive)
- GI50 (ACHN): > 100 µM (inactive)
- GI50 (UACC-257): > 100 µM (inactive)
- GI50 (EKVX): > 100 µM (inactive)
- GI50 (OVCAR-4): 64.1 µM (inactive)
- GI50 (KM12): 46.7 µM (inactive)
- GI50 (SNB-75): 3.68 µM (inactive)
- GI50 (HCT-15): > 100 µM
- GI50 (NCI-H23): 53.3 µM (inactive)
- GI50 (COLO 205): > 100 µM (inactive)
- GI50 (M14): 56.5 µM (inactive)
- GI50 (NCI/ADR-RES): > 100 µM (inactive)
- GI50 (CCRF-CEM): 25.8 µM (inactive)
- GI50 (HL-60): 31.8 µM (inactive)
- GI50 (SK-MEL-28): 43.3 µM (inactive)
- GI50 (786-0): 22.6 µM (inactive)
- GI50 (U-251): 12.3 µM (inactive)
- GI50 (HT-29): > 100 µM (inactive)
- GI50 (NCI-H522): > 100 µM (inactive)
- GI50 (SR): 11.9 µM (inactive)
- GI50 (MDA-MB-231): 10.1 µM (inactive)
- GI50 (HOP-62): 23.6 µM (inactive)
- GI50 (TK-10): 38.3 µM (inactive)
- GI50 (LOX IMVI): 17 µM (inactive)
